# Measured values from PubChem BioAssay AID270 (DTP/NCI, 2004).
# Where “and” joins values, the source holds several entries; their conditions need not be identical. Identical values can stand only once. Records with an inconclusive call do not appear.
# System: BDF1 mice, s.c. Lewis lung carcinoma, T/C %
# Test: NCI In Vivo Anticancer Drug Screen. Data for tumor model Lewis Lung Carcinoma (subcutaneous) in B6D2F1 (BDF1) mice
# Description: The antitumor activity of compounds was measured in mice bearing transplantable tumors. Survival or tumor size were measured and the results are expressed as the measurement made in the treated group (T) divided by the measurement made in the vehicle treated control group (C). The tumor model used in this assay is Lewis Lung Carcinoma (subcutaneous) in B6D2F1 (BDF1) mice
# [1] = endpoint: median survival time, dose: 12.5 mg/kg/injection, schedule: Q01DX009 (ip), vehicle: Klucel (hydroxypropylcellulose) (HPC), higher = longer survival
# [2] = endpoint: median survival time, dose: 25.0 mg/kg/injection, schedule: Q01DX009 (ip), vehicle: Klucel (hydroxypropylcellulose) (HPC), higher = longer survival
# [3] = endpoint: median survival time, dose: 50.0 mg/kg/injection, schedule: Q01DX009 (ip), vehicle: Klucel (hydroxypropylcellulose) (HPC), higher = longer survival
# [4] = endpoint: median survival time, dose: 5.0 mg/kg/injection, schedule: Q01DX009 (ip), vehicle: saline, higher = longer survival
compound,measurement,setting,value
CC(=N\O)/C(C)=N/O.CC(=N\O)/C(C)=N/O.[Pd],T/C,"endpoint: median survival time, dose: 0.75 mg/kg/injection, schedule: Q01DX009 (ip), vehicle: Klucel (hydroxypropylcellulose) (HPC), higher = longer survival",109 % of control
same,T/C,"endpoint: median survival time, dose: 1.57 mg/kg/injection, schedule: Q01DX009 (ip), vehicle: Klucel (hydroxypropylcellulose) (HPC), higher = longer survival",97 % of control
CCN(CC)CCCC(C)Nc1c2ccc(Cl)cc2nc2cc(Cl)ccc12 (configuration not stated),T/C,[1],105 % of control
same,T/C,[2],97 % of control
same,T/C,[3],105 % of control
CCOP(=O)(N1CC1(C)C)N1CC1(C)C (configuration not stated),T/C,[4],94 % of control
same,T/C,"endpoint: median survival time, dose: 10.0 mg/kg/injection, schedule: Q01DX009 (ip), vehicle: saline, higher = longer survival",101 % of control
same,T/C,"endpoint: median survival time, dose: 20.0 mg/kg/injection, schedule: Q01DX009 (ip), vehicle: saline, higher = longer survival",94 % of control
same,T/C,"endpoint: median survival time, dose: 30.0 mg/kg/injection, schedule: Q01DX009 (ip), vehicle: saline, higher = longer survival",101 % of control
same,T/C,"endpoint: median survival time, dose: 50.0 mg/kg/injection, schedule: Q01DX009 (ip), vehicle: saline, higher = longer survival",90 % of control
same,T/C,"endpoint: median survival time, dose: 80.0 mg/kg/injection, schedule: Q01DX009 (ip), vehicle: saline, higher = longer survival",99 % of control
CN(C)c1ccc(-c2cc[n+](C)cc2)cc1,T/C,"endpoint: median survival time, dose: 0.5 mg/kg/injection, schedule: Q01DX009 (ip), vehicle: saline, higher = longer survival",103 % of control
same,T/C,"endpoint: median survival time, dose: 1.0 mg/kg/injection, schedule: Q01DX009 (ip), vehicle: saline, higher = longer survival",114 % of control
same,T/C,"endpoint: median survival time, dose: 2.0 mg/kg/injection, schedule: Q01DX009 (ip), vehicle: saline, higher = longer survival",119 % of control
same,T/C,"endpoint: median survival time, dose: 3.0 mg/kg/injection, schedule: Q01DX009 (ip), vehicle: saline, higher = longer survival",106 % of control
same,T/C,"endpoint: median survival time, dose: 6.0 mg/kg/injection, schedule: Q01DX009 (ip), vehicle: saline, higher = longer survival",103 % of control
CC1CCC2(OC1)OC1C(O)C3C4CCC5CC(OC6OC(CO)C(OC7OC(CO)C(O)C(OC8OCC(O)C(O)C8O)C7OC7OC(CO)C(O)C(OC8OC(CO)C(O)C(O)C8O)C7O)C(O)C6O)C(O)CC5(C)C4CCC3(C)C1C2C (configuration not stated),T/C,"endpoint: mean tumor weight, dose: 6.2 mg/kg/injection, schedule: Q01DX011 (ip), vehicle: carboxymethylcellulose (CMC), higher = larger tumour",47 % of control and 58 % of control
same,T/C,"endpoint: mean tumor weight, dose: 12.5 mg/kg/injection, schedule: Q01DX011 (ip), vehicle: carboxymethylcellulose (CMC), higher = larger tumour",93 % of control and 98 % of control
same,T/C,"endpoint: median survival time, dose: 1.25 mg/kg/injection, schedule: Q01DX009 (ip), vehicle: saline, higher = longer survival",115 % of control
same,T/C,"endpoint: median survival time, dose: 2.5 mg/kg/injection, schedule: Q01DX009 (ip), vehicle: saline, higher = longer survival",122 % of control
same,T/C,[4],111 % of control
Cn1cnc2c1c(=O)[nH]c(=O)n2C,T/C,"endpoint: mean tumor weight, dose: 50.0 mg/kg/injection, schedule: Q01DX011 (ip), vehicle: saline, higher = larger tumour",74 % of control
same,T/C,"endpoint: mean tumor weight, dose: 100.0 mg/kg/injection, schedule: Q01DX011 (ip), vehicle: saline, higher = larger tumour",72 % of control
same,T/C,"endpoint: mean tumor weight, dose: 200.0 mg/kg/injection, schedule: Q01DX011 (ip), vehicle: saline, higher = larger tumour",85 % of control
same,T/C,"endpoint: mean tumor weight, dose: 400.0 mg/kg/injection, schedule: Q01DX011 (ip), vehicle: saline, higher = larger tumour",84 % of control
C=C1C(=O)OC2CC1C(O)C/C(C)=C/CC/C(C)=C/C(O)CC2C (configuration not stated),T/C,"endpoint: median survival time, dose: 1.56 mg/kg/injection, schedule: Q01DX009 (ip), vehicle: Klucel (hydroxypropylcellulose) (HPC), higher = longer survival",90 % of control
same,T/C,"endpoint: median survival time, dose: 3.12 mg/kg/injection, schedule: Q01DX009 (ip), vehicle: Klucel (hydroxypropylcellulose) (HPC), higher = longer survival",108 % of control
same,T/C,"endpoint: median survival time, dose: 6.25 mg/kg/injection, schedule: Q01DX009 (ip), vehicle: Klucel (hydroxypropylcellulose) (HPC), higher = longer survival",93 % of control
same,T/C,[1],92 % of control
same,T/C,[2],99 % of control
Clc1ncnc2c1ncn2C1CCCO1 (configuration not stated),T/C,"endpoint: mean tumor weight, dose: 25.0 mg/kg/injection, schedule: Q01DX011 (ip), vehicle: other, higher = larger tumour",91 % of control
same,T/C,"endpoint: mean tumor weight, dose: 50.0 mg/kg/injection, schedule: Q01DX011 (ip), vehicle: other, higher = larger tumour",108 % of control
same,T/C,"endpoint: mean tumor weight, dose: 100.0 mg/kg/injection, schedule: Q01DX011 (ip), vehicle: other, higher = larger tumour",81 % of control
same,T/C,"endpoint: mean tumor weight, dose: 200.0 mg/kg/injection, schedule: Q01DX011 (ip), vehicle: other, higher = larger tumour",51 % of control and 62 % of control
same,T/C,"endpoint: mean tumor weight, dose: 400.0 mg/kg/injection, schedule: Q01DX011 (ip), vehicle: other, higher = larger tumour",57 % of control
same,T/C,"endpoint: mean tumor weight, dose: 600.0 mg/kg/injection, schedule: Q01DX011 (ip), vehicle: other, higher = larger tumour",42 % of control
O=C(O)C1CCCCN1 (configuration not stated),T/C,"endpoint: mean tumor weight, dose: 133.0 mg/kg/injection, schedule: Q01DX011 (ip), vehicle: other, higher = larger tumour",110 % of control
same,T/C,"endpoint: mean tumor weight, dose: 300.0 mg/kg/injection, schedule: Q01DX011 (ip), vehicle: other, higher = larger tumour",123 % of control
same,T/C,"endpoint: mean tumor weight, dose: 450.0 mg/kg/injection, schedule: Q01DX011 (ip), vehicle: other, higher = larger tumour",116 % of control
O=CN(O)CC(=O)O,T/C,"endpoint: median survival time, dose: 3000.0 mg/kg/injection, schedule: Q01DX001 (ip), vehicle: saline, higher = longer survival",115 % of control
FC(F)(F)c1cc(CN(CCCl)CCCl)cc(C(F)(F)F)c1,T/C,[1],90 % of control
same,T/C,[3],90 % of control
